This passage reports relative viability results from the supplement of paper PMC10307832.

Assay in all cases: relative viability (nuclei count vs DMSO), 5 days (fraction); higher = more cells survive
Compound in the assay “BI-D1870 + Olaparib”: CC(C)CCN1c2nc(Nc3cc(F)c(O)c(F)c3)ncc2N(C)C(=O)C1C [BI-D1870] + O=C(c1cc(Cc2n[nH]c(=O)c3ccccc23)ccc1F)N1CCN(C(=O)C2CC2)CC1 [Olaparib] (partner 8 µM)
A digest of the protocol:
(§1)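 Cells from lung cancer lines were seeded into 1536-well plates and, one day later, dosed by pin tool. Treatments were either a single drug or a fixed dose of an anchor drug with five library-drug doses (not always all listed) in √10 steps. After 5 days, nuclei were stained in a one-step fixation (final 0.05% Triton X-100, 1% formaldehyde, 1 ug/ml Hoechst) and counted on 4× images, and relative viability is the treated-to-vehicle nuclei ratio, as the median of duplicate plates.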

Compound in the assay “Zebularine + Foretinib”: O=c1ncccn1[C@@H]1O[C@H](CO)[C@@H](O)[C@H]1O [Zebularine] + COc1cc2c(Oc3ccc(NC(=O)C4(C(=O)Nc5ccc(F)cc5)CC4)cc3F)ccnc2cc1OCCCN1CCOCC1 [Foretinib] (partner 0.25 µM)
A digest of the protocol:
as §1

Compound in the assay “BI-D1870 + AZD7762”: CC(C)CCN1c2nc(Nc3cc(F)c(O)c(F)c3)ncc2N(C)C(=O)C1C [BI-D1870] + NC(=O)Nc1cc(-c2cccc(F)c2)sc1C(=O)N[C@H]1CCCNC1 [AZD7762] (partner 0.2 µM)
The essentials: as §1

Compound in the assay “Zebularine + Crizotinib”: O=c1ncccn1[C@@H]1O[C@H](CO)[C@@H](O)[C@H]1O [Zebularine] + C[C@@H](Oc1cc(-c2cnn(C3CCNCC3)c2)cnc1N)c1c(Cl)ccc(F)c1Cl [Crizotinib] (partner 1 µM)
The essentials:
as §1

For NCI-H1793, the relative viability with BI-D1870 + Olaparib (first compound 0.04 µM) stood at 1.05; with BI-D1870 + Olaparib (first compound 0.1265 µM) it was 0.708; with BI-D1870 + Olaparib (first compound 0.4 µM) it was 0.799; in the assay with BI-D1870 + Olaparib (first compound 1.265 µM), 1.02; in the assay with BI-D1870 + Olaparib (first compound 4 µM), 0.898; in the assay with Zebularine + Foretinib (first compound 1 µM), 0.685. Moreover, the relative viability is 0.84 in the assay with Zebularine + Foretinib (first compound 3.162 µM); 0.573 with Zebularine + Foretinib (first compound 31.62 µM); 0.207 with Zebularine + Foretinib (first compound 100 µM); 0.74 with BI-D1870 + AZD7762 (first compound 0.04 µM); 0.411 with BI-D1870 + AZD7762 (first compound 0.1265 µM); 0.296 with BI-D1870 + AZD7762 (first compound 0.4 µM). Further, the values for the relative viability with BI-D1870 + AZD7762 (first compound 1.265 µM) and with BI-D1870 + AZD7762 (first compound 4 µM) were 0.417 and 0.504, respectively.

NCI-H2009: the relative viability with Zebularine + Crizotinib (first compound 1 µM) stood at 1.07; in the assay with Zebularine + Crizotinib (first compound 3.162 µM), 0.962; in the assay with Zebularine + Crizotinib (first compound 10 µM) it was 0.817; in the assay with Zebularine + Crizotinib (first compound 31.62 µM) it was 0.681; in the assay with Zebularine + Crizotinib (first compound 100 µM) it was 0.311; in the assay with BI-D1870 + Olaparib (first compound 0.04 µM), 0.831. Besides, the relative viability in the assay with BI-D1870 + Olaparib (first compound 0.1265 µM) was determined as 0.826; in the assay with BI-D1870 + Olaparib (first compound 0.4 µM), 0.602; with BI-D1870 + Olaparib (first compound 1.265 µM), 0.619; in the assay with BI-D1870 + Olaparib (first compound 4 µM) it was 0.583; with Zebularine + Foretinib (first compound 1 µM), 1.28; in the assay with Zebularine + Foretinib (first compound 3.162 µM) it was 1.25. Besides, the relative viability with Zebularine + Foretinib (first compound 10 µM) is 0.919; in the assay with Zebularine + Foretinib (first compound 31.62 µM) it was 0.973; with Zebularine + Foretinib (first compound 100 µM), 0.373.

As for NCI-H2023, the relative viability was 0.807 in the assay with Zebularine + Crizotinib (first compound 1 µM); 0.569 with Zebularine + Crizotinib (first compound 3.162 µM); 0.611 in the assay with Zebularine + Crizotinib (first compound 10 µM); 0.389 in the assay with Zebularine + Crizotinib (first compound 31.62 µM); 0.201 in the assay with Zebularine + Crizotinib (first compound 100 µM); 0.504 in the assay with BI-D1870 + Olaparib (first compound 0.04 µM). Further, the relative viability in the assay with BI-D1870 + Olaparib (first compound 0.1265 µM) is 0.444; with BI-D1870 + Olaparib (first compound 0.4 µM), 0.4; with BI-D1870 + Olaparib (first compound 1.265 µM) it was 0.44; with BI-D1870 + Olaparib (first compound 4 µM) it was 0.252; with Zebularine + Foretinib (first compound 1 µM), 0.843; with Zebularine + Foretinib (first compound 3.162 µM) it was 0.891. For the same cell line, the relative viability was 0.713 with Zebularine + Foretinib (first compound 10 µM), 0.635 in the assay with Zebularine + Foretinib (first compound 31.62 µM) and 0.361 with Zebularine + Foretinib (first compound 100 µM).

NCI-H2228: the relative viability in the assay with Zebularine + Crizotinib (first compound 1 µM) amounted to 0.462; with Zebularine + Crizotinib (first compound 3.162 µM), 0.38; in the assay with Zebularine + Crizotinib (first compound 10 µM) it was 0.42; with Zebularine + Crizotinib (first compound 31.62 µM) it was 0.521; in the assay with Zebularine + Crizotinib (first compound 100 µM), 0.37; in the assay with BI-D1870 + Olaparib (first compound 0.04 µM), 0.678. In addition, the relative viability was 0.429 with BI-D1870 + Olaparib (first compound 0.1265 µM); 0.511 with BI-D1870 + Olaparib (first compound 0.4 µM); 0.717 with BI-D1870 + Olaparib (first compound 1.265 µM); 0.314 in the assay with BI-D1870 + Olaparib (first compound 4 µM); 0.902 in the assay with Zebularine + Foretinib (first compound 1 µM); 0.898 with Zebularine + Foretinib (first compound 3.162 µM). Also, the relative viability with Zebularine + Foretinib (first compound 10 µM) was determined as 0.507; in the assay with Zebularine + Foretinib (first compound 31.62 µM), 0.914; in the assay with Zebularine + Foretinib (first compound 100 µM), 0.281.

In the case of NCI-H2342, the relative viability with BI-D1870 + Olaparib (first compound 0.04 µM) turned out to be 0.524; with BI-D1870 + Olaparib (first compound 0.1265 µM) it was 0.459; with BI-D1870 + Olaparib (first compound 0.4 µM), 0.471; with BI-D1870 + Olaparib (first compound 1.265 µM), 0.415; with BI-D1870 + Olaparib (first compound 4 µM), 0.502; in the assay with Zebularine + Foretinib (first compound 1 µM), 1.33. The relative viability was found to be 1.07 with Zebularine + Foretinib (first compound 3.162 µM); 0.802 in the assay with Zebularine + Foretinib (first compound 10 µM); 0.953 in the assay with Zebularine + Foretinib (first compound 31.62 µM); 0.748 with Zebularine + Foretinib (first compound 100 µM); 0.493 with BI-D1870 + AZD7762 (first compound 0.04 µM); 0.609 in the assay with BI-D1870 + AZD7762 (first compound 0.1265 µM). Moreover, the relative viability with BI-D1870 + AZD7762 (first compound 0.4 µM) is 0.392; with BI-D1870 + AZD7762 (first compound 1.265 µM), 0.803; in the assay with BI-D1870 + AZD7762 (first compound 4 µM), 0.667.

With SK-LU-1, the relative viability turned out to be 1.02 with Zebularine + Crizotinib (first compound 1 µM); 0.843 with Zebularine + Crizotinib (first compound 3.162 µM); 0.531 in the assay with Zebularine + Crizotinib (first compound 10 µM); 0.79 in the assay with Zebularine + Crizotinib (first compound 31.62 µM); 0.583 in the assay with Zebularine + Crizotinib (first compound 100 µM); 0.497 in the assay with BI-D1870 + Olaparib (first compound 0.04 µM). For the same cell line, the relative viability stood at 0.377 in the assay with BI-D1870 + Olaparib (first compound 0.1265 µM); 0.41 with BI-D1870 + Olaparib (first compound 0.4 µM); 0.427 with BI-D1870 + Olaparib (first compound 1.265 µM); 0.35 with BI-D1870 + Olaparib (first compound 4 µM); 0.884 in the assay with Zebularine + Foretinib (first compound 1 µM); 0.8 in the assay with Zebularine + Foretinib (first compound 3.162 µM). The relative viability in the assay with Zebularine + Foretinib (first compound 10 µM) is 0.47; with Zebularine + Foretinib (first compound 31.62 µM) it was 0.651; with Zebularine + Foretinib (first compound 100 µM), 0.444.

On to SK-MES-1, for which the relative viability with Zebularine + Crizotinib (first compound 1 µM) turned out to be 1.07; with Zebularine + Crizotinib (first compound 3.162 µM), 1.03; with Zebularine + Crizotinib (first compound 10 µM), 0.645; with Zebularine + Crizotinib (first compound 31.62 µM), 0.648; in the assay with Zebularine + Crizotinib (first compound 100 µM) it was 0.325; with BI-D1870 + Olaparib (first compound 0.04 µM), 0.77. Also, the relative viability worked out at 0.561 with BI-D1870 + Olaparib (first compound 0.1265 µM); 0.731 with BI-D1870 + Olaparib (first compound 0.4 µM); 0.363 with BI-D1870 + Olaparib (first compound 1.265 µM); 0.19 with BI-D1870 + Olaparib (first compound 4 µM); 1.12 in the assay with Zebularine + Foretinib (first compound 1 µM); 0.828 in the assay with Zebularine + Foretinib (first compound 3.162 µM). The relative viability worked out at 0.794 in the assay with Zebularine + Foretinib (first compound 10 µM), 0.742 with Zebularine + Foretinib (first compound 31.62 µM) and 0.337 with Zebularine + Foretinib (first compound 100 µM).

Turning to SW 900, the relative viability in the assay with BI-D1870 + Olaparib (first compound 0.04 µM) is 0.826; in the assay with BI-D1870 + Olaparib (first compound 0.1265 µM), 0.765; with BI-D1870 + Olaparib (first compound 0.4 µM) it was 0.711; with BI-D1870 + Olaparib (first compound 1.265 µM), 0.733; in the assay with BI-D1870 + Olaparib (first compound 4 µM) it was 0.964; with Zebularine + Foretinib (first compound 1 µM), 1.28. For the same cell line, the relative viability with Zebularine + Foretinib (first compound 3.162 µM) was determined as 0.633; in the assay with Zebularine + Foretinib (first compound 10 µM) it was 0.545; with Zebularine + Foretinib (first compound 31.62 µM), 0.762; with Zebularine + Foretinib (first compound 100 µM), 0.498; with BI-D1870 + AZD7762 (first compound 0.04 µM) it was 0.81; with BI-D1870 + AZD7762 (first compound 0.1265 µM), 0.589. The relative viability with BI-D1870 + AZD7762 (first compound 0.4 µM) stood at 0.526; with BI-D1870 + AZD7762 (first compound 1.265 µM), 0.661; with BI-D1870 + AZD7762 (first compound 4 µM) it was 0.594.

With SW 1573, the relative viability was 0.72 with Zebularine + Crizotinib (first compound 1 µM); 0.776 in the assay with Zebularine + Crizotinib (first compound 3.162 µM); 0.44 in the assay with Zebularine + Crizotinib (first compound 10 µM); 0.831 with Zebularine + Crizotinib (first compound 31.62 µM); 0.574 with Zebularine + Crizotinib (first compound 100 µM); 0.602 with BI-D1870 + Olaparib (first compound 0.04 µM). Moreover, the relative viability was 0.415 in the assay with BI-D1870 + Olaparib (first compound 0.1265 µM); 0.432 with BI-D1870 + Olaparib (first compound 0.4 µM); 0.419 with BI-D1870 + Olaparib (first compound 1.265 µM); 0.191 with BI-D1870 + Olaparib (first compound 4 µM); 0.871 with Zebularine + Foretinib (first compound 1 µM); 0.767 with Zebularine + Foretinib (first compound 3.162 µM). The relative viability with Zebularine + Foretinib (first compound 10 µM) was found to be 0.802; in the assay with Zebularine + Foretinib (first compound 31.62 µM), 0.999; with Zebularine + Foretinib (first compound 100 µM), 0.885.
